This passage reports melting point results from patent US7101881B2, “Tetrahydroquinolines” (Pfizer Inc, priority 2003, dated 2006).

SMILES strings stand for the structures. Counter-ions that a name gives are not always drawn.

The term melting point denotes the temperature of the solid-liquid transition. The compound `CN1CCN(c2cccc3c2CN(C(=O)CC2CC2)CC3)CC1` (as salt: salt) registered a melting point of 66 °C.

The compound `CN1CCN(c2cccc3c2CN(C(=O)CCc2ccc(Cl)cc2)CC3)CC1` (as salt: salt) [Example 2, 3-(4-Chloro-phenyl)-1-[8-(4-methyl-piperazin-1-yl)-3,4-dihydro-1H-isoquinolin-2-yl]-propan-1-one] had a melting point of 84 °C.

The compound `COc1ccc(CC(=O)N2CCc3cccc(N4CCN(C)CC4)c3C2)cc1` (as salt: salt) [Example 3, 2-(4-Methoxy-phenyl)-1-[8-(4-methyl-piperazin-1-yl)-3,4-dihydro-1H-isoquinolin-2-yl]-ethanone] registered a melting point of 63 °C.

Consider `CN1CCN(c2cccc3c2CN(C(=O)Cc2ccc(Cl)cc2Cl)CC3)CC1` (as salt: salt) [Example 6, 2-(2,4-Dichloro-phenyl)-1-[8-(4-methyl-piperazin-1-yl)-3,4-dihydro-1H-isoquinolin-2-yl]-ethanone], for which the melting point came out at 85 °C.

`CN1CCN(c2cccc3c2CN(C(=O)Cc2ccccc2Cl)CC3)CC1` (as salt: salt) [Example 7, 2-(2-Chloro-phenyl)-1-[8-(4-methyl-piperazin-1-yl)-3,4-dihydro-1H-isoquinolin-2-yl]-ethanone] had a melting point of 54 °C.

In turn, `CN1CCN(c2cccc3c2CN(C(=O)Cc2cccnc2)CC3)CC1` (as salt: salt) [Example 9, 1-[8-(4-Methyl-piperazin-1-yl)-3,4-dihydro-1H-isoquinolin-2-yl]-2-pyridin-3-yl-ethanone] showed a melting point of 56 °C.

In turn, `CN1CCN(c2cccc3c2CN(C(=O)c2ccc(Cl)cc2)CC3)CC1` (as salt: salt) [Example 10, (4-Chloro-phenyl)-[8-(4-methyl-piperazin-1-yl)-3,4-dihydro-1H-isoquinolin-2-yl]-methanone] had a melting point of 52 °C.

For the compound `CN1CCN(c2cccc3c2CN(C(=O)c2ccc(N4CCOCC4)cc2)CC3)CC1` [Example 11, [8-(4-Methyl-piperazin-1-yl)-3,4-dihydro-1H-isoquinolin-2-yl]-(4-morpholin-4-yl-phenyl)-methanone], the melting point is 129 °C (dec.).

In turn, `CN1CCN(c2cccc3c2CN(C(=O)Cc2ccc(Cl)c(Cl)c2)CC3)CC1` [Example 12, 2-(3,4-Dichloro-phenyl)-1-[8-(4-methyl-piperazin-1-yl)-3,4-dihydro-1H-isoquinolin-2-yl]-ethanone] gave a melting point of 66 °C.
